Experimental data published in patent US5856127A, “Antimicrobial peptides” (The Research Foundation of State University of New York, priority 1996, dated 1999).
Where a SMILES comes first, the peptide text is derived from it.

Legend:
Salix lucida pollen = assay type: cell-based; conditions: pH 6.2
Protocol: Willow pollen was extracted using the protocol described by de Niella and Maynard (1993). Catkins were gently stirred in carbon tetrachloride. The pollen/carbon tetrachloride suspension was filtered (Whatman filter paper) with suction. The pollen was transferred to microfuge tubes (1.5 ml) with a fine-bristle artist's brush and stored at -20° C.
(§1) To rehydrate, small amounts of pollen were placed in open microfuge tubes (1.5 ml) which were placed into a closed glass petri dish with a dampened tissue. Pollen was rehydrated overnight in a dark chamber at 14° C.
(§2) Rehydrated plant pollen was diluted with sucrose-boric acid medium ("SBM") to a concentration of 80 grains/μl (Neubauer hemocytometer). Media for pollen germination (SBM, pH 6.2) was prepared with deionized distilled water, sucrose (150 g/L), and boric acid (150 mg/L). Dilutions of all peptides tested against rehydrated pollen grains were aseptically prepared with sterile SBM. Aliquots (50 μl) of peptide solutions were aseptically placed in ELISA microtitre plates as before. Approximately 400 pollen grains (5 μl) were added to the 50 μl volume of peptide solution in the well to give the final peptide concentrations of 0, 1.25, 2.5, 5, 10, 15, 20, 25, 50, 100, 150, 200, and 250 μM. Microtitre plates were incubated in the dark at room temperature for 24 hr. […] All tests were repeated 4 or more times. Controls without peptides were included with all tests. The highest concentration tested was 250 μM.

[1] = system: Castanea mollissima pollen; assay type: cell-based; conditions: pH 6.2
Protocol: (§3) Pollen collections for Chinese chestnut (Castanea mollissima), tomato (Lycopersicon esculentum), and willow (Salix lucida) clone 507 were made in central New York. Chestnut catkins and tomato flowers were placed into paper bags in an ice chest. Within 2 hr after collection, catkins were cut into 1.0 cm segments and tomato anthers were placed into sterile 15 ml Falcon tubes. The tubes were "capped" with parafilm punctured with 12-15 holes and lyophilized for 24 hr. Lyophilized samples were stored at -20°C. until removed for rehydration.
as §1, §2

[2] = system: microorganisms and animal red blood cells; conditions: cited from earlier work
bacteria = test: Activity against bacteria relative to magainin (applicants' observation); assay type: cell-based; conditions: three amino acid substitution versus magainin
[3] = system: Agrobacterium tumefaciens; test: MIC against bacteria (Agrobacterium tumefaciens); assay type: cell-based; conditions: wild-type strain Bo542, no visible lawn or colonies after 3 days
Protocol: (§4) Dilutions of peptides, prepared in sterile deionized water, were placed (20 μl aliquots) in Corning disposable sterile polystyrene ELISA plates (96 well, high binding) which had been pretreated with bovine serum albumin by rinsing each well with 200 μl of a 1.0 mg/ml solution.
(§5) Bacterial suspensions of A. tumefaciens, E. amylovora, and P. syringae were obtained from liquid cultures grown in Luria Broth (Atlas and Parks 1993). Cultures were grown at 25°C. on a rotary shaker (110 rpm) for 14 hr. Bacterial cell suspensions with an optical density between 0.7 and 0.85 at 600 nanometers (OD600) were used for assay inoculations. Dilutions of peptides were placed in the 96-well ELISA plates as described above. The final peptide concentrations tested were 0, 0.625, 1.25, 2.5, 5, 10, 15, 20, 25, 50, 100, and 250 μM. All tests were repeated 2 or more times. Controls without peptides were included with all tests. The MIC for bacterial cells was the lowest peptide concentration associated with no visible bacterial lawn or isolated colonies on the medium after 3 days in all the repeated tests.

Pseudomonas syringae = test: MIC against bacteria (Pseudomonas syringae); assay type: cell-based; conditions: Collection PSS34, no visible lawn or colonies after 3 days
Protocol: as §4, §5

Erwinia amylovora = test: MIC against bacteria (Erwinia amylovora); assay type: cell-based; conditions: Collection 88-100, no visible lawn or colonies after 3 days
Protocol: as §4, §5

[4] = system: selected filamentous fungi; test: Activity against filamentous fungi relative to magainin (applicants' observation); assay type: cell-based; conditions: three amino acid substitution versus magainin
Septoria musiva = test: MIC against fungal conidia (Septoria musiva); assay type: cell-based; conditions: strain 92-49C, PDAmb pH 5.2, scored at 6 days, total prevention of germination
Protocol: as §4
(§6) Media (PDAmb, pH 5.2) was prepared with deionized water, Difco potato dextrose broth (12 g/L), Sigma D,L-methionine (0.05 g/L), Sigma biotin (2 mg/L), and FisherBiotech low melting point agarose (20 g/L). Sterilized media was added to the wells to make a final volume of 100 μl and allowed to harden for 3 hr prior to inoculation with 10 μl of conidial suspension. Peptide concentrations tested were 0, 1.25, 2.5, 5, 10, 15, 20, 25, 50, 100, 150, 200, and 250 μM.
(§7) Fungal conidial suspensions were aseptically prepared from agar plate cultures of C. parasitica and S. musiva or liquid cultures for F. oxysporum f.sp. lycopersici. Conidia were suspended from agar plates with 10 ml sterile 1% Tween 20. All culture suspensions were filtered through four layers of sterile cheesecloth, collected in sterile 15 ml Falcon tubes, and centrifuged for 3 min at 1900×g. The pellets were then suspended in 10 ml sterile deionized water and centrifuged for 3 min at 1900×g. The "washed" pellets were suspended in 5 ml sterile deionized water. The conidial concentration was determined using a hemocytometer (Fisher ultra plane, Neubauer ruling) and then diluted to 1.0×10^4 conidia/ml.
(§8) Approximately 100 conidia (10 μl) were transferred to each microtitre plate well. Microtitre plates were incubated in ambient light at room temperature in a moist chamber (plastic box containing wet paper towels and covered with clear plastic wrap). Tests with S. musiva used continuous light. Plates were scored for growth at 6 days and photographed. All tests were repeated 4 or more times. Controls without peptides were included with all tests.

Fusarium oxysporum = test: MIC against fungal conidia (Fusarium oxysporum); assay type: cell-based; conditions: f. sp. lycopersici strain 73, PDAmb pH 5.2, scored at 6 days
Protocol: as §4, §6, §7, §8

Cryphonectria parasitica = test: MIC against fungal conidia (Cryphonectria parasitica); assay type: cell-based; conditions: strain EP42, PDAmb pH 5.2, scored at 6 days
Protocol: as §4, §6, §7, §8

[5] = combined with either magainin I or magainin II in a 1:1 molar ratio; cited from earlier work
Pseudomonas aeruginosa = conditions: against Pseudomonas aeruginosa; cited from earlier work
Malus domestica pollen = assay type: cell-based; conditions: pH 6.2
Protocol: Apple (Malus domestica) cultivar "Empire" pollen was supplied by Susan Brown, Department of Horticultural Sciences, Cornell University, New York State Agricultural Experiment Station, Geneva, N.Y.
as §1, §2

[6] = system: Lycopersicon esculentum pollen; assay type: cell-based; conditions: pH 6.2
Protocol: as §3, §1, §2

Candida albicans = conditions: against the yeast Candida albicans; cited from earlier work

Question: Which “MIC, Salix lucida” value (Salix lucida pollen) does the source give for `CSCC[C@H](N)C(=O)N[C@@H](C)C(=O)N[C@@H](CO)C(=O)N[C@@H](CCCNC(=N)N)C(=O)N[C@@H](C)C(=O)N[C@@H](C)C(=O)NCC(=O)N[C@@H](CC(C)C)C(=O)N[C@@H](C)C(=O)N[C@@H](C)C(=O)N[C@@H](CCCNC(=N)N)C(=O)N[C@@H](CC(C)C)C(=O)N[C@@H](C)C(=O)N[C@@H](CCCNC(=N)N)C(=O)N[C@@H](CC(C)C)C(=O)N[C@@H](C)C(=O)N[C@@H](CC(C)C)C(=O)N[C@@H](CCCNC(=N)N)C(=O)N[C@@H](C)C(=O)N[C@@H](CC(C)C)C(=O)O` [ESF1] (H-MASRAAGLAARLARLALRAL-OH) here?
Answer: > 250 µM

Question: And the “MIC, Castanea mollissima” value [1]?
Answer: > 250 µM

Question: Which lytic activity [2] does the source give for `CC[C@H](C)[C@H](NC(=O)CN)C(=O)NCC(=O)N[C@@H](C)C(=O)N[C@H](C(=O)N[C@@H](CC(C)C)C(=O)N[C@@H](CCCCN)C(=O)N[C@H](C(=O)N[C@@H](CC(C)C)C(=O)N[C@H](C(=O)N[C@H](C(=O)NCC(=O)N[C@@H](CC(C)C)C(=O)N1CCC[C@H]1C(=O)N[C@@H](C)C(=O)N[C@@H](CC(C)C)C(=O)N[C@H](C(=O)N[C@@H](CO)C(=O)N[C@@H](Cc1c[nH]c2ccccc12)C(=O)N[C@H](C(=O)N[C@@H](CCCCN)C(=O)N[C@@H](CCCNC(=N)N)C(=O)N[C@@H](CCCCN)C(=O)N[C@@H](CCCNC(=N)N)C(=O)N[C@@H](CCC(N)=O)C(=O)N[C@@H](CCC(N)=O)C(N)=O)[C@@H](C)CC)[C@@H](C)CC)[C@@H](C)O)[C@@H](C)O)C(C)C)C(C)C` [melittin] here?
Answer: very lytic

Question: Which “change of magainin activity against bacteria” value (bacteria) does the source give for “(Ala^8,13,15)magainin II [Ala^8,13,15 Magainin II]” here?
Answer: increased magainin activity against bacteria

Question: What about the “MIC, Agrobacterium tumefaciens” value [3] of the same molecule?
Answer: 100 µM

Question: What about the “MIC, Pseudomonas syringae” value (Pseudomonas syringae) of the same molecule?
Answer: 250 µM

Question: And the “MIC, Erwinia amylovora” value (Erwinia amylovora)?
Answer: 250 µM

Question: What about the “change of magainin activity against selected filamentous fungi” value [4] of the same molecule?
Answer: opposite effect

Question: And the “MIC, Septoria musiva” value (Septoria musiva)?
Answer: 10 µM

Question: What about the “MIC, Fusarium oxysporum” value (Fusarium oxysporum) of the same molecule?
Answer: 15 µM

Question: What about the “MIC, Cryphonectria parasitica” value (Cryphonectria parasitica) of the same molecule?
Answer: 30 µM

Question: Which “increase of antimicrobial activity” value [5] does the source give for PGLa here?
Answer: 20-50 fold

Question: And the “times more active than XPF” value (Pseudomonas aeruginosa)?
Answer: 4-5 times

Question: With `CSCC[C@H](N)C(=O)N[C@@H](C)C(=O)N[C@@H](CO)C(=O)N[C@@H](CCCNC(=N)N)C(=O)N[C@@H](C)C(=O)N[C@@H](C)C(=O)NCC(=O)N[C@@H](CC(C)C)C(=O)N[C@@H](C)C(=O)N[C@@H](CCCNC(=N)N)C(=O)N[C@@H](CCCNC(=N)N)C(=O)N[C@@H](CC(C)C)C(=O)N[C@@H](C)C(=O)N[C@@H](CCCNC(=N)N)C(=O)N[C@@H](CC(C)C)C(=O)N[C@@H](C)C(=O)N[C@@H](CCCNC(=N)N)C(=O)N[C@@H](CCCNC(=N)N)C(=O)N[C@@H](C)C(=O)N[C@@H](CC(C)C)C(=O)O` [ESF5] (H-MASRAAGLARRLARLARRAL-OH) as the molecule, how does the “MIC, Salix lucida” value (Salix lucida pollen) read?
Answer: > 250 µM

Question: And the “MIC, Castanea mollissima” value [1]?
Answer: > 250 µM

Question: What does the source list for cecropin B?
Answer: MIC, Septoria musiva (Septoria musiva): 5 µM; MIC, Fusarium oxysporum (Fusarium oxysporum): 20 µM; MIC, Cryphonectria parasitica (Cryphonectria parasitica): 15 µM

Question: Which “MIC, Septoria musiva” value (Septoria musiva) does the source give for Magainin I here?
Answer: 5 µM

Question: And the “MIC, Fusarium oxysporum” value (Fusarium oxysporum)?
Answer: 15 µM

Question: What about the “MIC, Cryphonectria parasitica” value (Cryphonectria parasitica) of the same molecule?
Answer: 10 µM

Question: For `CSCC[C@H](N)C(=O)N[C@@H](C)C(=O)N[C@@H](CO)C(=O)N[C@@H](CCCNC(=N)N)C(=O)N[C@@H](C)C(=O)N[C@@H](C)C(=O)NCC(=O)N[C@@H](CC(C)C)C(=O)N[C@@H](C)C(=O)N[C@@H](C)C(=O)N[C@@H](CCCNC(=N)N)C(=O)N[C@@H](CC(C)C)C(=O)N[C@@H](C)C(=O)N[C@@H](CCCNC(=N)N)C(=O)N[C@@H](CC(C)C)C(=O)N[C@@H](C)C(=O)N[C@@H](CC(C)C)C(=O)N[C@@H](CCCNC(=N)N)C(=O)O` [ESF12] (H-MASRAAGLAARLARLALR-OH), which “MIC, Malus domestica” value (Malus domestica pollen) is on record?
Answer: > 250 µM

Question: And the “MIC, Salix lucida” value (Salix lucida pollen)?
Answer: > 250 µM

Question: And the “MIC, Castanea mollissima” value [1]?
Answer: > 250 µM

Question: What about the “MIC, Lycopersicon esculentum” value [6] of the same molecule?
Answer: > 250 µM

Question: With XPF as the molecule, how does the “times more effective than PGLa” value (Candida albicans) read?
Answer: 2-2.5 times

Question: Which results are given for `CSCC[C@H](N)C(=O)N[C@@H](C)C(=O)N[C@@H](C)C(=O)N[C@@H](CCCNC(=N)N)C(=O)N[C@@H](C)C(=O)N[C@@H](C)C(=O)NCC(=O)N[C@@H](CC(C)C)C(=O)N[C@@H](C)C(=O)N[C@@H](C)C(=O)N[C@@H](CCCNC(=N)N)C(=O)N[C@@H](CC(C)C)C(=O)N[C@@H](C)C(=O)N[C@@H](C)C(=O)N[C@@H](CC(C)C)C(=O)N[C@@H](C)C(=O)N[C@@H](CC(C)C)C(=O)N[C@@H](CCCNC(=N)N)C(=O)N[C@@H](C)C(=O)N[C@@H](CC(C)C)C(=O)O` [ESF6] (H-MAARAAGLAARLAALALRAL-OH)?
Answer: MIC, Salix lucida (Salix lucida pollen): > 250 µM; MIC, Castanea mollissima [1]: > 250 µM
